Data taken from ChEMBL document CHEMBL1152855, “Regioselective synthesis of dispiro[1H-indene-2,3'-pyrrolidine-2',3''-[3H]indole]-1,2''(1''H)-diones of potential anti-tumor properties” (2009).

Columns and labels:
SNB-19 = assay: Growth inhibition of human SNB19 cells at 10 uM after 48 hrs by sulforhodamine B assay; assay type: functional; conditions: SNB-19, 48 h, values are per cent of control
T47D = assay: Growth inhibition of human T47D cells at 10 uM after 48 hrs by sulforhodamine B assay; assay type: functional; conditions: values are per cent of control
NCI-H522 = assay: Growth inhibition of human NCI-H522 cells at 10 uM after 48 hrs by sulforhodamine B assay; assay type: functional; conditions: NCI-H522, 48 h, values are per cent of control
SR = assay: Growth inhibition of human SR cells at 10 uM after 48 hrs by sulforhodamine B assay; assay type: functional; conditions: values are per cent of control
TK-10 = assay: Growth inhibition of human TK10 cells at 10 uM after 48 hrs by sulforhodamine B assay; values are per cent of control; conditions: TK-10, 48 h
HCT-15 = assay: Growth inhibition of human HCT15 cells at 10 uM after 48 hrs by sulforhodamine B assay; assay type: functional; conditions: HCT-15, 48 h, values are per cent of control
CAKI-1 = assay: Growth inhibition of human Caki1 cells at 10 uM after 48 hrs by sulforhodamine B assay; assay type: functional; conditions: CAKI-1, 48 h, values are per cent of control
DU-145 = assay: Growth inhibition of human DU145 cells at 10 uM after 48 hrs by sulforhodamine B assay; assay type: functional; conditions: DU-145, 48 h, values are per cent of control
SW-620 = assay: Growth inhibition of human SW620 cells at 10 uM after 48 hrs by sulforhodamine B assay; assay type: functional; conditions: SW-620, 48 h, values are per cent of control
NCI-H226 = assay: Growth inhibition of human NCI-H226 cells at 10 uM after 48 hrs by sulforhodamine B assay; assay type: functional; conditions: NCI-H226, 48 h, values are per cent of control
M14 = assay: Growth inhibition of human M14 cells at 10 uM after 48 hrs by sulforhodamine B assay; assay type: functional; conditions: M14, 48 h, values are per cent of control
Rattus norvegicus [1] = assay: Antiinflammatory activity against carrageenan-induced paw edema in Wister albino rat assessed as inhibition of edema at 50 mg/kg, ip administered 1 hr prior to carrageenan challenge measured after 4 hrs relative to control; assay type: functional; conditions: route intraperitoneal
HCT-116 = assay: Growth inhibition of human HCT116 cells at 10 uM after 48 hrs by sulforhodamine B assay; assay type: functional; conditions: HCT-116, 48 h, values are per cent of control
OVCAR-5 = assay: Growth inhibition of human OVCAR5 cells at 10 uM after 48 hrs by sulforhodamine B assay; assay type: functional; conditions: OVCAR-5, 48 h, values are per cent of control
KM12 = assay: Growth inhibition of human KM12 cells at 10 uM after 48 hrs by sulforhodamine B assay; assay type: functional; conditions: KM12, 48 h, values are per cent of control
RPMI-8226 = assay: Growth inhibition of human RPMI8226 cells at 10 uM after 48 hrs by sulforhodamine B assay; assay type: functional; conditions: RPMI-8226, 48 h, read-out: GI
Rattus norvegicus [2] = assay: Antiinflammatory activity against carrageenan-induced paw edema in Wister albino rat assessed as inhibition of edema at 50 mg/kg, ip administered 1 hr prior to carrageenan challenge measured after 3 hrs relative to control; assay type: functional; conditions: route intraperitoneal
PC-3 = assay: Growth inhibition of human PC3 cells at 10 uM after 48 hrs by sulforhodamine B assay; assay type: functional; conditions: PC-3, 48 h, values are per cent of control
NCI-H460 = assay: Growth inhibition of human NCI-H460 cells at 10 uM after 48 hrs by sulforhodamine B assay; assay type: functional; conditions: NCI-H460, 48 h, values are per cent of control
ACHN = assay: Growth inhibition of human ACHN cells at 10 uM after 48 hrs by sulforhodamine B assay; assay type: functional; conditions: values are per cent of control
OVCAR-8 = assay: Growth inhibition of human OVCAR8 cells at 10 uM after 48 hrs by sulforhodamine B assay; assay type: functional; conditions: OVCAR-8, 48 h, read-out: GI
K562 = assay: Growth inhibition of human K562 cells at 10 uM after 48 hrs by sulforhodamine B assay; assay type: functional; conditions: K562, 48 h, values are per cent of control
UO-31 = assay: Growth inhibition of human UO31 cells at 10 uM after 48 hrs by sulforhodamine B assay; assay type: functional; conditions: UO-31, 48 h, values are per cent of control
HOP-62 = assay: Growth inhibition of human HOP62 cells at 10 uM after 48 hrs by sulforhodamine B assay; assay type: functional; conditions: HOP-62, 48 h, values are per cent of control
UACC-62 = assay: Growth inhibition of human UACC62 cells at 10 uM after 48 hrs by sulforhodamine B assay; assay type: functional; conditions: UACC-62, 48 h, values are per cent of control
CCRF-CEM = assay: Growth inhibition of human CCRF-CEM cells at 10 uM after 48 hrs by sulforhodamine B assay; assay type: functional; conditions: values are per cent of control
786-0 = assay: Growth inhibition of human 786-0 cells at 10 uM after 48 hrs by sulforhodamine B assay; assay type: functional; conditions: 786-0, 48 h, values are per cent of control
OVCAR-4 = assay: Growth inhibition of human OVCAR4 cells at 10 uM after 48 hrs by sulforhodamine B assay; assay type: functional; conditions: OVCAR-4, 48 h, values are per cent of control
MDA-MB-435 = assay: Growth inhibition of human MDA-MB-435 cells at 10 uM after 48 hrs by sulforhodamine B assay; assay type: functional; conditions: MDA-MB-435, 48 h, values are per cent of control
OVCAR-3 = assay: Growth inhibition of human OVCAR-3 cells at 10 uM after 48 hrs by sulforhodamine B assay; assay type: functional; conditions: OVCAR-3, 48 h, values are per cent of control
U-251 = assay: Growth inhibition of human U251 cells at 10 uM after 48 hrs by sulforhodamine B assay; assay type: functional; conditions: U-251, 48 h, values are per cent of control
SK-MEL-28 = assay: Growth inhibition of human SK-MEL-28 cells at 10 uM after 48 hrs by sulforhodamine B assay; assay type: functional; conditions: SK-MEL-28, 48 h, values are per cent of control
BT-549 = assay: Growth inhibition of human BT549 cells at 10 uM after 48 hrs by sulforhodamine B assay; assay type: functional; conditions: BT-549, 48 h, values are per cent of control
MCF7 = assay: Growth inhibition of human MCF7 cells at 10 uM after 48 hrs by sulforhodamine B assay; assay type: functional; conditions: MCF7, 48 h, values are per cent of control
SK-OV-3 = assay: Growth inhibition of human SKOV3 cells at 10 uM after 48 hrs by sulforhodamine B assay; assay type: functional; conditions: SK-OV-3, 48 h, values are per cent of control
SF-268 = assay: Growth inhibition of human SF268 cells at 10 uM after 48 hrs by sulforhodamine B assay; assay type: functional; conditions: SF-268, 48 h, values are per cent of control
SNB-75 = assay: Growth inhibition of human SNB75 cells at 10 uM after 48 hrs by sulforhodamine B assay; assay type: functional; conditions: SNB-75, 48 h, values are per cent of control
Malme-3M = assay: Growth inhibition of human MALME-3M cells at 10 uM after 48 hrs by sulforhodamine B assay; assay type: functional; conditions: values are per cent of control

Row | Compound | growth, % of control at 10 µM (SNB-19) | growth, % of control at 10 µM (T47D) | growth, % of control at 10 µM (NCI-H522) | growth, % of control at 10 µM (SR) | growth, % of control at 10 µM (TK-10) | growth, % of control at 10 µM (HCT-15) | growth, % of control at 10 µM (CAKI-1) | growth, % of control at 10 µM (DU-145) | growth, % of control at 10 µM (SW-620) | growth, % of control at 10 µM (NCI-H226) | growth, % of control at 10 µM (M14) | inhibition in vivo at 50 mg/kg (Rattus norvegicus [1]) | growth, % of control at 10 µM (HCT-116) | growth, % of control at 10 µM (OVCAR-5) | growth, % of control at 10 µM (KM12) | inhibition of growth at 10 µM (RPMI-8226) | inhibition in vivo at 50 mg/kg (Rattus norvegicus [2]) | growth, % of control at 10 µM (PC-3) | growth, % of control at 10 µM (NCI-H460) | growth, % of control at 10 µM (ACHN) | also measured
1 | [3H]N1C(=O)[C@@]2(c3ccccc31)N(C)C[C@@H](c1cccs1)[C@@]21Cc2ccccc2C1=O | 99.8% | 96% | 92.3% | 60.3% | 144% | 103% | 106% | 92% | 89.5% | 96.2% | 103% | 20% | 92.2% | 98.8% | 94.3% | 89.1% | 32.6% | 73% | 109% | 97.9% | inhibition of growth at 10 µM (OVCAR-8): 60.2%; growth, % of control at 10 µM (K562): 93.7%; growth, % of control at 10 µM (UO-31): 95.8%; growth, % of control at 10 µM (HOP-62): 110%; growth, % of control at 10 µM (UACC-62): 82%; growth, % of control at 10 µM (CCRF-CEM): 91.4%; growth, % of control at 10 µM (786-0): 111%; growth, % of control at 10 µM (OVCAR-4): 93%; growth, % of control at 10 µM (MDA-MB-435): 115%; growth, % of control at 10 µM (OVCAR-3): 95.6%; growth, % of control at 10 µM (U-251): 100%; growth, % of control at 10 µM (SK-MEL-28): 117%; growth, % of control at 10 µM (BT-549): 119%; growth, % of control at 10 µM (MCF7): 109%; growth, % of control at 10 µM (SK-OV-3): 96.2%; growth, % of control at 10 µM (SF-268): 93.6%; growth, % of control at 10 µM (SNB-75): 81%; growth, % of control at 10 µM (Malme-3M): 93.5%
2 | [3H]N1C(=O)[C@@]2(c3ccccc31)N(C)C[C@@H](c1ccc(OC)cc1)[C@@]21Cc2ccccc2C1=O | 92.2% | 97.5% | 91% | 140% | 176% | 107% | 85.7% | 110% | 87.5% | 85.9% | 97.5% | 21.8% | 92.6% | 106% | 95.3% | 66.8% | 20.5% | 66% | 107% | 98.1% | inhibition of growth at 10 µM (OVCAR-8): 55.3%; growth, % of control at 10 µM (K562): 93.9%; growth, % of control at 10 µM (UO-31): 92.5%; growth, % of control at 10 µM (HOP-62): 100%; growth, % of control at 10 µM (UACC-62): 71.8%; growth, % of control at 10 µM (CCRF-CEM): 87.3%; growth, % of control at 10 µM (786-0): 102%; growth, % of control at 10 µM (OVCAR-4): 118%; growth, % of control at 10 µM (MDA-MB-435): 124%; growth, % of control at 10 µM (OVCAR-3): 98.5%; growth, % of control at 10 µM (U-251): 96.7%; growth, % of control at 10 µM (SK-MEL-28): 108%; growth, % of control at 10 µM (BT-549): 118%; growth, % of control at 10 µM (MCF7): 120%; growth, % of control at 10 µM (SK-OV-3): 97.3%; growth, % of control at 10 µM (SF-268): 113%; growth, % of control at 10 µM (SNB-75): 102%; growth, % of control at 10 µM (Malme-3M): 132%
3 | [3H]C([3H])([3H])N1C(=O)[C@@]2(c3ccccc31)N(C)C[C@@H](c1ccc(OC)cc1)[C@@]21Cc2ccccc2C1=O | 94.1% | 93.3% | 87% | 125% | 165% | 89.1% | 91.1% | 128% | 83.3% | 78.7% | 94.1% | 3.8% | 59.8% | 97.7% | 98.2% | 17.7% | 3.3% | 58.4% | 95.4% | 82.8% | inhibition of growth at 10 µM (OVCAR-8): 83.8%; growth, % of control at 10 µM (K562): 85.2%; growth, % of control at 10 µM (UO-31): 75.5%; growth, % of control at 10 µM (HOP-62): 88.2%; growth, % of control at 10 µM (UACC-62): 63.1%; growth, % of control at 10 µM (CCRF-CEM): 72.1%; growth, % of control at 10 µM (786-0): 88%; growth, % of control at 10 µM (OVCAR-4): 78.8%; growth, % of control at 10 µM (MDA-MB-435): 101%; growth, % of control at 10 µM (OVCAR-3): 92.5%; growth, % of control at 10 µM (U-251): 88.4%; growth, % of control at 10 µM (SK-MEL-28): 101%; growth, % of control at 10 µM (BT-549): 101%; growth, % of control at 10 µM (MCF7): 100%; growth, % of control at 10 µM (SK-OV-3): 99.4%; growth, % of control at 10 µM (SF-268): 108%; growth, % of control at 10 µM (SNB-75): 79%; growth, % of control at 10 µM (Malme-3M): 104%
